Read-outs that look alike come from different tables or passages of the source.

Consider one molecule from patent US20240277658A1, “NLRP3 ACTIVATORS FOR USE IN THE TREATMENT OF INFECTIOUS DISEASES OR CANCER BY ACTIVATING NLRP3 INFLAMMASOME” (ALBERT-LUDWIGS-UNIVERSITÄT FREIBURG, priority 2020, published 2024).

One assay has as its system BMDCs. The assay can be described thus: LDH release (lytic cell death, pyroptosis) from LPS-primed BMDCs. Format: cell-based, mouse. The following applies: for Average (% positive control): LDH release; for cytotoxicity at 10 µM / cytotoxicity at 20 µM / cytotoxicity at 25 µM / cytotoxicity at 50 µM / cytotoxicity at 18.75 µM: Mus musculus, BMDC; for cytotoxicity at 50 µM: LPS-primed BMDCs. A digest of the protocol: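 LDH released into medium, detected colorimetrically, served as the pyroptosis read-out in triplicate. LPS-primed (50 ng ml^−1, 3 h) murine bone marrow-derived dendritic cells received test compounds, typically 50 μM, or nigericin (5 μM), R837 or CL097 (100 μM) for 3 hours.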

The next assay deals with NLRP3. The assay can be described thus: Inflammasome stimulation (IL-1β, LDH release) in BMDCs from NLRP3 knockout or ASC knockout mice. The class given is cell-based, mouse. The following applies: IL-1β and LDH release. (LDH in the medium is a marker of cell lysis.)

For the molecule `O=C(Nc1ccccc1)Nc1ccc2ncccc2c1` [EN22, 1-phenyl-3-(quinolin-6-yl)urea], the “Average (% positive control)” value is recorded as 100.000 % positive control in the assay on BMDCs (10 μM, positive control EN22 10 μM); 100.000 % positive control in the assay with BMDCs (20 μM, positive control EN22 20 μM); 100.000 % positive control in the assay with BMDCs (25 μM, positive control EN22 25 μM); 95.180 % positive control with BMDCs (compound 50 μM, positive control nigericin 5 μM); 100.000 % positive control in the assay on BMDCs (section 1.2, 25 μM, positive control EN22 25 μM); 100.000 % positive control in the assay with BMDCs (section 1.4, 18.75 μM, positive control EN22 18.75 μM). Moreover, the cytotoxicity at 10 µM in the assay on BMDCs (10 μM, individual replicate values, read-out: LDH release (% of max.)) stood at 78.1%; in the assay on BMDCs (10 μM, read-out: Average LDH release (% of max.)), 76.8%. Also, the cytotoxicity at 20 µM with BMDCs (20 μM, individual replicate values, read-out: LDH release (% of max.)) was found to be 49.4%; with BMDCs (20 μM, read-out: Average LDH release (% of max.)) it was 53.3%. Also, the cytotoxicity at 25 µM with BMDCs (25 μM, EN11 series table, read-out: Average LDH release (% of max.)) is 50.8%; in the assay on BMDCs (25 μM, individual replicate values, EN11 series table, read-out: LDH release (% of max.)), 51.9%; in the assay with BMDCs (section 1.2, 25 μM, read-out: Average LDH release (% of max.)), 30%; in the assay with BMDCs (section 1.2, single replicates, 25 μM, read-out: LDH release (% of max.)) it was 29.6%. Further, the cytotoxicity at 50 µM in the assay on BMDCs (compound 50 μM, read-out: Average LDH release (% of max.)) worked out at 69.6%; in the assay on BMDCs (single replicates, compound 50 μM, read-out: LDH release (% of max.)), 59.4%. Further, the cytotoxicity at 18.75 µM with BMDCs (section 1.4, 18.75 μM, read-out: Average LDH release (% of max.)) amounted to 71.3%; in the assay on BMDCs (section 1.4, single replicates, 18.75 μM, read-out: LDH release (% of max.)), 71.4%. Besides, the “characteristics of inflammasome activation in cells isolated from NLRP3 knockout mice” value with NLRP3 is recorded as “do not occur”.
